Among the data in patent US11596639B2, “Substituted indole Mcl-1 inhibitors” (Vanderbilt University, priority 2016, dated 2023) are GI50 and Ki values, retold here.

Read-outs that look alike come from different tables or passages of the source.

The subject of assay [1] is H929 human cancer cell lines. As to the kind of experiment: Cellular viability / proliferation (Cell TiterGlo, 72 h). The format is cell-based. The essentials: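 Plating is at 1,000 cells/well in 10% FBS medium; after 24 h, compound is added as a 2-fold series starting at 50 μM with under 1% DMSO.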
Another assay concerns the target Mcl-1 (Homo sapiens (Human), UniProt Q07820). As to the kind of experiment: Fluorescence polarization anisotropy (FPA) competition assay, FITC-Bak or FITC-Bim BH3 peptide. Format: binding. The following applies: read-out: Ki for Inhibition of Mcl-1 by FPA assay.
Where [2] appears, read: Homo sapiens, NCI-H929, 72 h, read-out: GI50 on cellular proliferation of H929 human cancer cell lines, H929 cells, 72 h, Cell TiterGlo, 10% FBS.

Sequence of Mcl-1 (Q07820 172-327): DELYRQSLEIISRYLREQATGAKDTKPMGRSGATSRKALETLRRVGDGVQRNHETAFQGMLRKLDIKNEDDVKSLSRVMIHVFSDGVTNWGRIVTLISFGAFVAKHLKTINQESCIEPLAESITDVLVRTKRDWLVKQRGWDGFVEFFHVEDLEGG

For the compound `Cc1cc(OCCCc2c3n(c4c(-c5c(C)nn(C)c5C)c(Cl)ccc24)[C@H](C)[C@@H](C)N(c2ccc(C(=O)O)cc2)C3=O)cc(C)c1Cl` [Example 142, 4-((3R,4R)-7-chloro-10-(3-(4-chloro-3,5-dimethylphenoxy)propyl)-3,4-dimethyl-1-oxo-6-(1,3,5-trimethyl-1H-pyrazol-4-yl)-3,4-dihydropyrazino[1,2-a]indol-2(1H)-yl)benzoic acid], the GI50 in assay [1] (setting [2]) is 7400 nM. Also, the Ki on Mcl-1 amounted to 3.8 nM.
For `Cc1cc(OCCCc2c3n(c4c(-c5c(C)nn(CC(=O)O)c5C)c(Cl)ccc24)CCCN(c2cccc4cccnc24)C3=O)cc(C)c1Cl` [Example 144, 2-(4-(8-Chloro-11-(3-(4-chloro-3,5-dimethylphenoxy)propyl)-1-oxo-2-(quinolin-8-yl)-2,3,4,5-tetrahydro-1H-[1,4]diazepino[1,2-a]indol-7-yl)-3,5-dimethyl-1H-pyrazol-1-yl)acetic acid], the GI50 in assay [1] (setting [2]) stood at 6500 nM. The Ki at Mcl-1 was below 1 nM.
On the same counts, the results for `Cc1cc(OCCCc2c3n(c4c(-c5c(C)nn(C)c5C)c(Cl)ccc24)[C@H](C)CN(c2cn(C)c4c(C)cc(C(=O)O)cc24)C3=O)cc(C)c1Cl` [Example 145, (R)-3-(7-chloro-10-(3-(4-chloro-3,5-dimethylphenoxy)propyl)-4-methyl-1-oxo-6-(1,3,5-trimethyl-1H-pyrazol-4-yl)-3,4-dihydropyrazino[1,2-a]indol-2(1H)-yl)-1,7-dimethyl-1H-indole-5-carboxylic acid] are 360 nM and below 1 nM.
On the same counts, the results for `Cc1cc(OCCCc2c3n(c4c(-c5c(C)ncnc5C)c(Cl)ccc24)CCCN(c2ccc(C(=O)O)c4ncccc24)C3=O)cc(C)c1Cl` [Example 147, 5-[8-Chloro-11-[3-(4-chloro-3,5-dimethyl-phenoxy)propyl]-7-(4,6-dimethylpyrimidin-5-yl)-1-oxo-4,5-dihydro-3H-[1,4]diazepino[1,2-a]indol-2-yl]quinoline-8-carboxylic acid] are 4300 nM and 1.8 nM.
With `Cc1cc(OCCCc2c3n(c4c(-c5c(C)ncnc5C)c(Cl)ccc24)[C@H](C)CN(c2cccc4c(C(=O)O)cccc24)C3=O)cc(C)c1Cl` [Example 148, 5-[(4R)-7-chloro-10-[3-(4-chloro-3,5-dimethyl-phenoxy)propyl]-6-(4,6-dimethylpyrimidin-5-yl)-4-methyl-1-oxo-3,4-dihydropyrazino[1,2-a]indol-2-yl]naphthalene-1-carboxylic acid], the GI50 in assay [1] (setting [2]) stood at 650 nM. Moreover, the inhibition constant (Ki) at Mcl-1 is below 1 nM.
Consider `Cc1cc(OCCCc2c3n(c4c(-c5c(C)n[nH]c5C)c(Cl)ccc24)CCCN(c2cccc4cccnc24)C3=O)cc(C)c1Cl` [Example 150, 8-Chloro-11-(3-(4-chloro-3,5-dimethylphenoxy)propyl)-7-(3,5-dimethyl-1H-pyrazol-4-yl)-2-(quinolin-8-yl)-2,3,4,5-tetrahydro-1H-[1,4]diazepino[1,2-a]indol-1-one], for which the GI50 in assay [1] (H929 cells, 72 h, Cell TiterGlo, 10% FBS, read-out: GI50 on cellular proliferation of H929 human cancer cell lines) came to 5100 nM. For the same compound, the inhibition constant (Ki) on Mcl-1 came out at 13 nM.
Turning to `Cc1cc(OCCCc2c3n(c4c(-c5c(C)ncnc5C)c(Cl)ccc24)CCCN(c2cccc4c(C(=O)O)cccc24)C3=O)cc(C)c1Cl` [Example 151, 5-[8-Chloro-11-[3-(4-chloro-3,5-dimethyl-phenoxy)propyl]-7-(4,6-dimethylpyrimidin-5-yl)-1-oxo-4,5-dihydro-3H-[1,4]diazepino[1,2-a]indol-2-yl]naphthalene-1-carboxylic acid], in assay [1] (setting [2]), the GI50 amounted to 2100 nM. Besides, on Mcl-1, the Ki was below 1 nM.
On the same counts, the results for `Cc1cc(OCCCc2c3n(c4c(-c5c(C)ncnc5C)c(Cl)ccc24)[C@H](C)CN(c2cc(C(=O)O)c4ccn(C)c4c2)C3=O)cc(C)c1Cl` [Example 152, 6-[(4R)-7-chloro-10-[3-(4-chloro-3,5-dimethyl-phenoxy)propyl]-6-(4,6-dimethylpyrimidin-5-yl)-4-methyl-1-oxo-3,4-dihydropyrazino[1,2-a]indol-2-yl]-1-methyl-indole-4-carboxylic acid] are 850 nM and below 1 nM.
On the same counts, the results for `Cc1cc(OCCCc2c3n(c4c(-c5c(C)ncnc5C)c(Cl)ccc24)[C@H](C)CN(c2cn(C)c4cc(C(=O)O)ccc24)C3=O)cc(C)c1Cl` [Example 153, 3-[(4R)-7-chloro-10-[3-(4-chloro-3,5-dimethyl-phenoxy)propyl]-6-(4,6-dimethylpyrimidin-5-yl)-4-methyl-1-oxo-3,4-dihydropyrazino[1,2-a]indol-2-yl]-1-methyl-indole-6-carboxylic acid] are 410 nM and below 1 nM.
On the same counts, the results for `Cc1cc(OCCCc2c3n(c4c(-c5c(C)ncnc5C)c(Cl)ccc24)CCCN(c2cc(C(=O)O)cc4c2OCCO4)C3=O)cc(C)c1Cl` [Example 154, 5-[8-Chloro-11-[3-(4-chloro-3,5-dimethyl-phenoxy)propyl]-7-(4,6-dimethylpyrimidin-5-yl)-1-oxo-4,5-dihydro-3H-[1,4]diazepino[1,2-a]indol-2-yl]-2,3-dihydro-1,4-benzodioxine-7-carboxylic acid] are 1300 nM and below 1 nM.
`Cc1cc(OCCCc2c3n(c4c(-c5c(C)ncnc5C)c(Cl)ccc24)CCCN(c2cc(C(=O)O)c4cnn(C)c4c2)C3=O)cc(C)c1Cl` [Example 155, 6-[8-Chloro-11-[3-(4-chloro-3,5-dimethyl-phenoxy)propyl]-7-(4,6-dimethylpyrimidin-5-yl)-1-oxo-4,5-dihydro-3H-[1,4]diazepino[1,2-a]indol-2-yl]-1-methyl-indazole-4-carboxylic acid]: the GI50 in assay [1] (setting [2]) was determined as 1400 nM. At Mcl-1, the Ki is below 1 nM.
For `Cc1cc(OCCCc2c3n(c4c(-c5c(C)ncnc5C)c(Cl)ccc24)CCCN(c2cn(C)c4ccc(C(=O)O)cc24)C3=O)cc(C)c1Cl` [Example 156, 3-[8-Chloro-11-[3-(4-chloro-3,5-dimethyl-phenoxy)propyl]-7-(4,6-dimethylpyrimidin-5-yl)-1-oxo-4,5-dihydro-3H-[1,4]diazepino[1,2-a]indol-2-yl]-1-methyl-indole-5-carboxylic acid], the GI50 in assay [1] (setting [2]) amounted to 260 nM. Moreover, the Ki on Mcl-1 is below 1 nM.
On the same counts, the results for `Cc1cc(OCCCc2c3n(c4c(-c5c(C)nn(C)c5C)c(Cl)ccc24)[C@H](C)CN(c2ccc4c(C(=O)O)cccc4n2)C3=O)cc(C)c1Cl` [Example 157, (R)-2-(7-Chloro-10-(3-(4-chloro-3,5-dimethylphenoxy)propyl)-4-methyl-1-oxo-6-(1,3,5-trimethyl-1H-pyrazol-4-yl)-3,4-dihydropyrazino[1,2-a]indol-2(1H)-yl)quinoline-5-carboxylic acid] are 6400 nM and 2.5 nM.
On the same counts, the results for `CCCn1cc(N2C[C@@H](C)n3c(c(CCCOc4cc(C)c(Cl)c(C)c4)c4ccc(Cl)c(-c5c(C)nn(C)c5C)c43)C2=O)c2cc(C(=O)O)ccc21` [Example 158, (R)-3-(7-Chloro-10-(3-(4-chloro-3,5-dimethylphenoxy)propyl)-4-methyl-1-oxo-6-(1,3,5-trimethyl-1H-pyrazol-4-yl)-3,4-dihydropyrazino[1,2-a]indol-2(1H)-yl)-1-propyl-1H-indole-5-carboxylic acid] are 480 nM and below 1 nM.
